Test results from US8759333B2, “Di-azetidinyl diamide as monoacylglycerol lipase inhibitors” (Janssen Pharmaceutica, NV, priority 2010, dated 2014).
Residue numbers refer to the chain shown, from its start.

Experiments:
[1] = test system: CFA-Induced Paw Radiant Heat Hypersensitivity; assay: CFA-Induced Paw Radiant Heat Hypersensitivity; assay type: in vivo; settings: po, 5 h; rat, 30 mg/kg p.o., HPβCD, group mean values, last time point 300 min (180 min for Cpd 17, 77); read-out: Method 1: peak % reversal
Experimental: Each rat was placed in a test chamber on a warm glass surface and allowed to acclimate for approximately 10 min. A radiant thermal stimulus (beam of light) was focused through the glass onto the plantar surface of each hind paw in turn. The thermal stimulus was automatically shut off by a photoelectric relay when the paw was moved or when the cut-off time was reached (20 sec for radiant heat at ˜5 amps). An initial (baseline) response latency to the thermal stimulus was recorded for each animal prior to the injection of complete Freund's adjuvant (CFA). Twenty-four hours following intraplantar CFA injection, the response latency of the animal to the thermal stimulus was re-evaluated and compared to the animal's baseline response time. […] Immediately following the post-CFA latency assessment, the indicated test compound or vehicle was administered orally. Post-compound treatment withdrawal latencies were assessed at fixed time intervals, typically 30, 60, 120, 180, and 300 min.
The percent reversal (% R) of hypersensitivity was calculated in one of two different ways:
1) using group mean values or 2) using individual animal values. More specifically:
Method 1. For all compounds, the % R of hypersensitivity was calculated using the mean value for groups of animals at each time point according to the following formula: % reversal=[(group treatment response−group CFA response)/(group baseline response−group CFA response)]×100 Results were given for the maximum % reversal observed for each compound at any time point tested.
Method 2. For some compounds, the % R of hypersensitivity was calculated separately for each animal according to the following formula: % reversal=[(individual treatment response−individual CFA response)/(individual baseline response−individual CFA response)]×100.
Results are given as a mean of the maximum % reversal values calculated for each individual animal.

[2] = target: T1, wild type MGL (wt-MGLL 6H-11-313) (Homo sapiens, UniProt Q99685); assay: MGL Enzyme Activity Assay, purified wild type MGL, 4MU-B substrate; assay type: biochemical; settings: wild type MGL 5 nM, 4MU-B 10 μM, 37° C.; read-out: MGL wild type inh IC50
T1 construct: purified wild type MGL (wt-MGLL 6H-11-313); 6H (hexahistidine) (N)
T1 sequence (Q99685 1-303): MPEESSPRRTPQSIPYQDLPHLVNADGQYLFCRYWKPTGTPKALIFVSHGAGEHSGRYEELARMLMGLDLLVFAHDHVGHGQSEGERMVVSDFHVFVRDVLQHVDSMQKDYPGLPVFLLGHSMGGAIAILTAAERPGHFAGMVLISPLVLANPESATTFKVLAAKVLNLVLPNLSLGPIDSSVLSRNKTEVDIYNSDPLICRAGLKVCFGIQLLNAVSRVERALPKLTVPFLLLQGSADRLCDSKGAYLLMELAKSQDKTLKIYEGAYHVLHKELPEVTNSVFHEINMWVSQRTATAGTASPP
Experimental: All rate-based assays were performed in black 384-well polypropylene PCR microplates (Abgene) in a total volume of 30 μL. […] Final compound concentrations ranged from 17 to 0.0003 μM.
The IC50 values for the following compounds were determined using Microsoft Office Excel from a fit of the equation to the concentration-response plot of the fractional activity as a function of inhibitor concentration.

MGL = target: T2, MGL (Rattus norvegicus, UniProt Q8R431); assay: 2-AG Accumulation Assay in rat brain homogenate; assay type: biochemical; settings: percent of vehicle; for activity at 1 µM: compound @1 µM, read-out: Rat Brain 2AG % VehCntrl (%) @1 µM; for activity at 10 µM: compound @10 µM, read-out: Rat Brain 2AG % VehCntrl (%) @10 µM
T2 construct: one g rat brain was homogenized using a Polytron homogenizer; from tissue; host or cells: rat brain homogenate
T2 sequence (Q8R431 1-303): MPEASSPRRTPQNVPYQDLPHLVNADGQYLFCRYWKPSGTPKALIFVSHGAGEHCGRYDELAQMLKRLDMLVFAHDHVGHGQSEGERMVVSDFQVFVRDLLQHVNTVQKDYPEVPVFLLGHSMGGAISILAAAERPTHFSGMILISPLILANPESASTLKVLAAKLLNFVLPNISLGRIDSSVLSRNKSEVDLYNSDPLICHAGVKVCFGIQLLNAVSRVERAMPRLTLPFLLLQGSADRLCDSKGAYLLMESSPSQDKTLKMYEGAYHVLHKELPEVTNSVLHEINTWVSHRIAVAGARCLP

mutant MGL = target: T3, mutant MGL (Homo sapiens, UniProt Q99685, L169S/L176S); assay: MGL ThermoFluor Assay - Mutant; assay type: binding; settings: 0.07 mg/ml mutant MGL, 100 μM ANS, pH 7.0
T3 construct: purified mutant MGL (mut-MGLL 11-313 L179S L186S)
T3 sequence (Q99685 1-303 L169S/L176S): T1 sequence (Q99685 1-303) with L169S, L176S
Procedure, shortened: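 Thermal-shift binding with 0.07 mg/ml L169S/L176S mutant MGL, 100 μM 1,8-ANS, 200 mM NaCl, 0.001% Tween-20, 50 mM PIPES pH 7.0, heated 40–90 °C at 1 °C/min.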

[3] = target: T4, mutant MGL (mut-MGLL 11-313 L179S L186S) (Homo sapiens, UniProt Q99685, L169S/L176S); assay: MGL Enzyme Activity Assay, purified mutant MGL, 4MU-B substrate; assay type: biochemical; settings: mutant MGL 5 nM, 4MU-B 10 μM, 37° C.; read-out: MGL mutant inh IC50
T4 construct: purified mutant MGL (mut-MGLL 11-313 L179S L186S)
T4 sequence (Q99685 1-303 L169S/L176S): T1 sequence (Q99685 1-303) with L169S, L176S
Procedure, shortened: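 Purified mutant MGL (5 nM final) with 10 μM 4MU-B in 20 mM PIPES pH 7.0, 150 mM NaCl, 0.001% Tween 20; compounds 17 to 0.0003 μM final. Fluorescence (ex 335/em 440 nm) followed 5 min at 37 °C; IC50 from fit of fractional activity versus inhibitor concentration.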

| Structure (SMILES) | inhibition in vivo at 30 mg/kg [1] [%] | IC50 [2] [nM] | activity at 1 µM (MGL) [%] | Kd (mutant MGL) [nM] | IC50 [3] [nM] | activity at 10 µM (MGL) [%] |
| --- | --- | --- | --- | --- | --- | --- |
| Cc1c(C(=O)N2CC(N3CC(N4Cc5ccccc5C4=O)C3)C2)sc2cc(C(F)(F)F)ccc12 [Cpd 101, 2-(1′-{[3-Methyl-6-(trifluoromethyl)-1-benzothiophen-2-yl]carbonyl}-1,3′-biazetidin-3-yl)-2,3-dihydro-1H-isoindol-1-one] | 6.1 | 6 | 534 | 4 | – | – |
| O=C(NC1CN(C2CN(C(=O)c3cc4ccc(C(F)(F)F)cc4s3)C2)C1)c1cscn1 [Cpd 49, N-(1′-{[6-(Trifluoromethyl)-1-benzothiophen-2-yl]carbonyl}-1,3′-biazetidin-3-yl)-1,3-thiazole-4-carboxamide] | – | 14 | 167 | 31.9 | < 5 | – |
| O=C(NC1CN(C2CN(C(=O)c3ccc4nc(-c5ccccc5)sc4c3)C2)C1)c1nccs1 [Cpd 4, N-{1′-[(2-Phenyl-1,3-benzothiazol-6-yl)carbonyl]-1,3′-biazetidin-3-yl}-1,3-thiazole-2-carboxamide] | – | 13 | 148 | 143 | 7 | – |
| O=C(NC1CN(C2CN(C(=O)c3cc4ccc(C(F)(F)F)cc4s3)C2)C1)c1nccs1 [Cpd 7, N-(1′-{[6-(Trifluoromethyl)-1-benzothiophen-2-yl]carbonyl}-1,3′-biazetidin-3-yl)-1,3-thiazole-2-carboxamide] | – | < 5 | 243 | 10 | 10 | – |
| O=C(NC1CN(C2CN(C(=O)c3ccc(-c4ccc(C(F)(F)F)cc4)cc3)C2)C1)c1cscn1 [Cpd 14, N-(1′-{[4′-(Trifluoromethyl)biphenyl-4-yl]carbonyl}-1,3′-biazetidin-3-yl)-1,3-thiazole-4-carboxamide] | – | 9 | 187 | 86 | 27 | – |
| CS(=O)(=O)c1cccc(-c2ccc3sc(C(=O)N4CC(N5CC(N6Cc7ccccc7C6=O)C5)C4)cc3c2)c1 [Cpd 82, 2-[1′-({5-[3-(Methylsulfonyl)phenyl]-1-benzothiophen-2-yl}carbonyl)-1,3′-biazetidin-3-yl]-2,3-dihydro-1H-isoindol-1-one] | – | 16 | 490 | 105 | 22 | – |
| O=C(NC1CN(C2CN(C(=O)c3sc4cc(C(F)(F)F)ccc4c3Cl)C2)C1)c1nccs1 [Cpd 50, N-(1′-{[3-Chloro-6-(trifluoromethyl)-1-benzothiophen-2-yl]carbonyl}-1,3′-biazetidin-3-yl)-1,3-thiazole-2-carboxamide] | – | < 5 | 460 | 0.7 | < 5 | – |
| O=C(NC1CN(C2CN(C(=O)c3ccc(-c4ccc(C(F)(F)F)cc4)cc3)C2)C1)c1nccs1 [Cpd 12, N-(1′-{[4′-(Trifluoromethyl)biphenyl-4-yl]carbonyl}-1,3′-biazetidin-3-yl)-1,3-thiazole-2-carboxamide] | – | < 5 | 215 | 51 | 18 | 557 |
| O=C(c1sc2cc(-c3ccccc3)ccc2c1-c1ccccc1)N1CC(N2CC(N3Cc4ccccc4C3=O)C2)C1 [Cpd 74, 2-{1′-[(3,6-Diphenyl-1-benzothiophen-2-yl)carbonyl]-1,3′-biazetidin-3-yl}-2,3-dihydro-1H-isoindol-1-one] | – | < 5 | 323 | 1.3 | 12 | – |
| O=C(c1sc2cc(-c3ccccc3)ccc2c1Cl)N1CC(N2CC(N3Cc4ccccc4C3=O)C2)C1 [Cpd 68, 2-{1′-[(3-Chloro-6-phenyl-1-benzothiophen-2-yl)carbonyl]-1,3′-biazetidin-3-yl}-2,3-dihydro-1H-isoindol-1-one] | – | < 5 | 433 | 3.3 | 6 | – |
| CS(=O)(=O)c1cccc(-c2ccc3cc(C(=O)N4CC(N5CC(N6Cc7ccccc7C6=O)C5)C4)sc3c2)c1 [Cpd 72, 2-[1′-({6-[3-(Methylsulfonyl)phenyl]-1-benzothiophen-2-yl}carbonyl)-1,3′-biazetidin-3-yl]-2,3-dihydro-1H-isoindol-1-one] | – | < 5 | 781 | 33.2 | 9 | – |
| O=C(NC1CN(C2CN(C(=O)c3sc4cc(C(F)(F)F)ccc4c3Cl)C2)C1)c1cscn1 [Cpd 51, N-(1′-{[3-Chloro-6-(trifluoromethyl)-1-benzothiophen-2-yl]carbonyl}-1,3′-biazetidin-3-yl)-1,3-thiazole-4-carboxamide] | – | < 5 | 477 | 2.2 | < 5 | – |
| O=C(NC1CN(C2CN(C(=O)c3ccc4c(ccn4-c4ccccc4)c3)C2)C1)c1nccs1 [Cpd 13, N-{1′-[(1-Phenyl-1H-indol-5-yl)carbonyl]-1,3′-biazetidin-3-yl}-1,3-thiazole-2-carboxamide] | – | < 5 | 441 | 50 | 19 | – |
| O=C(NC1CN(C2CN(C(=O)c3ccc(-c4ccc(C(F)(F)F)s4)cc3)C2)C1)c1nccs1 [Cpd 9, N-[1′-({4-[5-(Trifluoromethyl)thiophen-2-yl]phenyl}carbonyl)-1,3′-biazetidin-3-yl]-1,3-thiazole-2-carboxamide] | – | 506 | 193 | 14 | 13 | 160 |
| O=C(NC1CN(C2CN(C(=O)c3ccc4c(cnn4-c4ccccc4)c3)C2)C1)c1nccs1 [Cpd 52, N-{1′-[(1-Phenyl-1H-indazol-5-yl)carbonyl]-1,3′-biazetidin-3-yl}-1,3-thiazole-2-carboxamide] | – | < 5 | 291 | 73.4 | < 5 | – |
| O=C(c1sc2cc(Br)ccc2c1Cl)N1CC(N2CC(N3Cc4ccccc4C3=O)C2)C1 [Cpd 73, 2-{1′-[(6-Bromo-3-chloro-1-benzothiophen-2-yl)carbonyl]-1,3′-biazetidin-3-yl}-2,3-dihydro-1H-isoindol-1-one] | – | < 5 | 295 | 31.3 | 12 | – |
